{"source": "patent US20090280153A1", "about": "“electrical devices, anti-scarring agents, and therapeutic compositions” (Angiotech International AG, priority 2005, published 2009)"}
{"tested_on": "bacteria and fungi", "assay": "not given", "conditions": "surface drug concentration is to exceed this value; cited from earlier work"}
{"compound": "O=c1[nH]cc(F)c(=O)[nH]1", "note": "[5-fluorouracil, 5-Fluorouracil]", "concentration known to be lethal to bacteria and fungi": "10^−4 M"}
{"compound": "COc1cc([C@@H]2c3cc4c(cc3[C@@H](O[C@@H]3O[C@@H]5CO[C@@H](C)O[C@H]5[C@H](O)[C@H]3O)[C@H]3COC(=O)[C@H]23)OCO4)cc(OC)c1O", "note": "[etoposide, Etoposide]", "concentration known to be lethal to bacteria and fungi": "10^−5 M"}
{"compound": "O=C1c2c(O)ccc(O)c2C(=O)c2c(NCCNCCO)ccc(NCCNCCO)c21", "note": "[mitoxantrone]", "concentration known to be lethal to bacteria and fungi": "10^−5 M"}
{"compound": "COc1cccc2c1C(=O)c1c(O)c3c(c(O)c1C2=O)C[C@@](O)(C(=O)CO)C[C@@H]3O[C@H]1C[C@H](N)[C@H](O)[C@H](C)O1", "note": "[doxorubicin, Doxorubicin]", "concentration known to be lethal to bacteria and fungi": "10^−4 M"}
{"tested_on": "AP-1", "assay": "IL-1 induced AP-1 binding activity in chondrocyte lysates (FIG. 4C)", "assay_type": "cell-based", "conditions": "chondrocytes pretreated with paclitaxel"}
{"compound": "CC(=O)O[C@H]1C(=O)[C@@]2(C)[C@H]([C@H](OC(=O)c3ccccc3)[C@]3(O)C[C@H](OC(=O)[C@H](O)[C@@H](NC(=O)c4ccccc4)c4ccccc4)C(C)=C1C3(C)C)[C@]1(OC(C)=O)CO[C@@H]1C[C@@H]2O", "note": "[paclitaxel]", "IL-1 induced binding activity in lysates from chondrocytes": "decreased"}
{"tested_on": "collagenase and stromelysin", "assay": "IL-1 induced collagenase and stromelysin expression in chondrocytes (FIGS. 4D, 5A-H)", "assay_type": "cell-based", "conditions": "pretreatment with paclitaxel; FIG. 4D"}
{"compound": "CC(=O)O[C@H]1C(=O)[C@@]2(C)[C@H]([C@H](OC(=O)c3ccccc3)[C@]3(O)C[C@H](OC(=O)[C@H](O)[C@@H](NC(=O)c4ccccc4)c4ccccc4)C(C)=C1C3(C)C)[C@]1(OC(C)=O)CO[C@@H]1C[C@@H]2O", "note": "[paclitaxel]", "IL-1 induction of collagenase and stromelysin RNA levels in chondrocytes": "inhibited"}
{"tested_on": "fibroblasts and/or smooth muscle cells, macrophages", "assay": "assays described herein (in vitro screening assays for anti-fibrosis agents)", "assay_type": "cell-based", "conditions": "approximately; high potency (1-100) or mid-potency (100-500) agents; read-out: IC50 range in the assays described herein", "source_text": "(§1) Agents which may inhibit fibrosis or gliosis may be readily identified based upon in vitro and in vivo (animal) models, such as those provided in Examples 39-52. Depending on their mechanisms, various agents may be effective in some, but not all screening assays for anti-fibrosis or anti-gliosis agents, and different agents may be effective in different screening assays. Agents which inhibit fibrosis can be identified through in vivo models including inhibition of intimal hyperplasia development in the rat balloon carotid artery model (Examples 44 and 61). The assays set forth in Examples 43 and 51 may be used to determine whether an agent is able to inhibit cell proliferation in fibroblasts and/or smooth muscle cells. In one aspect of the invention, the agent has an IC50 for inhibition of cell proliferation within a range of about 10^−6 to about 10^−10 M. In certain embodiments, the agent may have an IC50 for inhibition of cell proliferation of less than about 10,000 nM; or less than about 1000 nM; or less than about 100 nM. The assay set forth in Example 47 may be used to determine whether an agent may inhibit migration of fibroblasts and/or smooth muscle cells. In one aspect of the invention, the agent has an IC50 for inhibition of cell migration within a range of about 10^−6 to about 10^−9M. In certain embodiments, the agent may have an IC50 for inhibition of fibroblast or smooth muscle cell migration of less than about 10,000 nM; or less than about 1000 nM; or less than about 100 nM. Assays set forth herein may be used to determine whether an agent is able to inhibit inflammatory processes, including nitric oxide production in macrophages (Example 39), and/or TNF-alpha production by macrophages (Example 40), and/or IL-1 beta production by macrophages (Example 48), and/or IL-8 production by macrophages (Example 49), and/or inhibition of MCP-1 by macrophages (Example 50). In one aspect of the invention, the agent has an IC50 for inhibition of any one of these inflammatory processes within a range of about 10^−6 to about 10^−10M. In certain embodiments, the agent may have an IC50 for any one of these inflammatory processes of less than about 10,000 nM; or less than about 1000 nM; or less than about 100 nM. The assay set forth in Example 45 may be used to determine whether an agent is able to inhibit MMP production. In one aspect of the invention, the agent has an IC50 for inhibition of MMP production within a range of about 10^−4 to about 10^−8M. In certain embodiments, the agent may have an IC50 for inhibition of MMP production of less than about 10,000 nM; or less than about 1000 nM; or less than about 100 nM. The assay set forth in Example 46 (also known as the CAM assay) may be used to determine whether an agent is able to inhibit angiogenesis. In one aspect of the invention, the agent has an IC50 for inhibition of angiogenesis within a range of about 10^−6 to about 10^−10M. In certain embodiments, the agent may have an IC50 for inhibition of angiogenesis of less than about 10,000 nM; or less than about 1000 nM; or less than about 100 nM. The assay set forth in Example 52 may be used to determine whether an agent is able to inhibit MMP-1. In one aspect of the invention, the agent has an IC50 for inhibition of MMP-1 within a range of about 10^−6 to about 10^−10M. In certain embodiments, the agent may have an IC50 for inhibition of MMP-1 of less than about 10,000 nM; or less than about 1000 nM; or less than about 100 nM. Agents which reduce the formation of surgical adhesions may be identified through in vivo models including the rabbit surgical adhesions model (Example 42) and the rat caecal sidewall model (Example 41). […]", "units": {"IC50": "nM"}}
{"compound": "Nc1nc(Cl)nc2c1ncn2[C@H]1C[C@H](O)[C@@H](CO)O1", "note": "[cladribine]", "IC50": "100 to 500"}
{"compound": "Cc1ccc(=O)n(-c2ccccc2)c1", "note": "[pirfenidone]", "IC50": "1 to 100"}
{"compound": "C[C@@H]1C[C@H]2O[C@@H]2/C=C\\C=C\\C(=O)Cc2c(Cl)c(O)cc(O)c2C(=O)O1", "note": "[radicicol]", "IC50": "1 to 100"}
{"compound": "C=CC[C@@H]1/C=C(\\C)C[C@H](C)C[C@H](OC)[C@H]2O[C@@](O)(C(=O)C(=O)N3CCCC[C@H]3C(=O)O[C@H](/C(C)=C/[C@@H]3CC[C@@H](O)[C@H](OC)C3)[C@H](C)[C@@H](O)CC1=O)[C@H](C)C[C@@H]2OC", "note": "[tacrolimus]", "IC50": "1 to 100"}
{"compound": "COC(=O)C[C@](O)(CCCC(C)(C)O)C(=O)O[C@@H]1C(OC)=C[C@]23CCCN2CCc2cc4c(cc2[C@H]13)OCO4", "note": "[homoharringtonine]", "IC50": "1 to 100"}
{"compound": "CC1=C(/C=C/C(C)=C/C=C/C(C)=C\\C(=O)O)C(C)(C)CCC1", "note": "[isotretinoin]", "IC50": "1 to 100"}
{"compound": "CCC1=C[C@@H]2CN(C1)Cc1c([nH]c3ccccc13)[C@@](C(=O)OC)(c1cc3c(cc1OC)N(C)[C@H]1[C@@](O)(C(=O)OC)[C@H](OC(C)=O)[C@]4(CC)C=CCN5CC[C@]31[C@@H]54)C2", "note": "[vinorelbine]", "IC50": "1 to 100"}
{"compound": "COc1ccc(C[C@H](N)C(=O)N[C@H]2[C@@H](O)[C@H](n3cnc4c(N(C)C)ncnc43)O[C@@H]2CO)cc1", "note": "[puromycin]", "IC50": "100 to 500"}
{"compound": "C/C=C(/C)C(=O)O[C@H]1C(C)=C2[C@H]([C@@H]1OC(=O)CCCCCCC)[C@@](C)(OC(C)=O)C[C@H](OC(=O)CCC)[C@@]1(O)[C@H]2OC(=O)[C@@]1(C)O", "note": "[thapsigargin]", "IC50": "1 to 100"}
{"compound": "CCC(=O)O[C@]1(C(=O)CCl)[C@@H](C)C[C@H]2[C@@H]3CCC4=CC(=O)C=C[C@]4(C)[C@@]3(F)[C@@H](O)C[C@@]21C", "note": "[clobetasol propionate]", "IC50": "1 to 100"}
{"compound": "O=C[C@@H](O)[C@@H](O)[C@H](O)[C@H](O)COP(=O)(O)O", "note": "[mannose-6-phosphate]", "IC50": "100 to 500"}
{"compound": "O=C1C=CC(=O)c2c(O)cccc21", "note": "[juglone]", "IC50": "100 to 500"}
{"compound": "CCOC(=O)O[C@]1(C(=O)OCCl)CC[C@H]2[C@@H]3CCC4=CC(=O)C=C[C@]4(C)[C@H]3[C@@H](O)C[C@@]21C", "note": "[loteprednol etabonate]", "IC50": "100 to 500"}
{"compound": "C[C@]12C=CC(=O)C=C1CC[C@@H]1[C@@H]2[C@@H](O)C[C@@]2(C)[C@H]1CC[C@]2(O)C(=O)CO", "note": "[prednisolone]", "IC50": "100 to 500"}
{"compound": "COCc1c(C(C)C)nc(C(C)C)c(/C=C/[C@@H](O)C[C@@H](O)CC(=O)O)c1-c1ccc(F)cc1", "note": "[cerivastatin]", "IC50": "1 to 100"}
{"tested_on": "fibroblasts and/or smooth muscle cells, macrophages", "assay": "assays described herein (in vitro screening assays for anti-fibrosis agents)", "assay_type": "cell-based", "conditions": "approximately; low potency agents; read-out: IC50 range in the assays described herein", "source_text": "as §1", "units": {"IC50": "nM"}}
{"compound": "CN(C)C[C@@H]1CCn2cc(c3ccccc32)C2=C(C(=O)NC2=O)c2cn(c3ccccc23)CCO1", "note": "[Ly333531 (ruboxistaurin), ruboxistaurin]", "IC50": "500 to 1000"}
{"compound": "CCC(C)(C)C(=O)O[C@H]1C[C@@H](C)C=C2C=C[C@H](C)[C@H](CC[C@@H]3C[C@@H](O)CC(=O)O3)[C@H]21", "note": "[simvastatin]", "IC50": "500 to 1000"}
{"compound": "Nc1ncn([C@@H]2O[C@H](CO)[C@@H](O)[C@H]2O)c(=O)n1", "note": "[5-azacytidine]", "IC50": "500 to 1000"}
